Laboratory results as given in patent publication US12377153B2, “Poly(beta-thioester) polymers and polymeric nanoparticles” (MASSACHUSETTS INSTITUTE OF TECHNOLOGY, priority 2019, dated 2025).

System: dendritic cells in the draining lymph nodes
Assay: Dendritic cell phenotype in draining lymph nodes after subcutaneous vaccination
Format: in vivo, C57BL/6J mice
Conditions: antigen alone as compared to vehicle-treated animals
Method: The activity of the polymeric adjuvant B18 was assessed in C57BL/6J mice. Vaccines were prepared by admixing a model peptide antigen (SIINFEKL) with B18 nanoparticles and injected subcutaneously into mice. Following three injections placed three days apart, animals were sacrificed and dendritic cell phenotype in the draining lymph nodes were analyzed using flow cytometry.

For SIINFEKL, the dendritic cell activation was “no appreciable dendritic cell activation”.
